Results taken from paper PMC8853707, “Synthesis and enzyme-based evaluation of analogues L-tyrosine thiol carboxylic acid inhibitor of metallo-β-lactamase IMP-1” (Journal of Enzyme Inhibition and Medicinal Chemistry, 2019).

Target: T1, IMP-1 (Serratia marcescens, UniProt P52699)
Experiment: Kinetic inhibition assay of IMP-1 (hydrolysis of benzyl penicillin followed at 235 nm), Kic
Assay type: biochemical
Conditions: not given
Excerpt: The IMP-1 enzyme, lacking the first 21 signal peptide amino acid residues, was expressed and purified using the protocol of Vella et al.[45–46] The reported methods for monitoring of MBLs activities are based on the consequences of the hydrolysis of β-lactam ring of substrates. The MBL-catalysed reaction is usually monitored by following the changing absorbance at the wavelength where the difference in the molar absorptivity, ΔɛM, is maximal or near the maximum value. There are a few β-lactam substrates which can be used for in vitro assays of MBLs inhibitors. CENTA,[47] a type of cephalosporin, and Penicillin G (benzyl penicillin)[48] are well-known substrates due to commercial availability, inexpensive prices and comfort of their syntheses. For this study, Penicillin G was used as CENTA was not compatible with the inhibitor type as reported by Arjomandi et al.[1] The monitoring of hydrolysis of benzyl penicillin by the synthesized compounds was carried out in UV plate at wavelength 235 nm as no chromosphere is released (Figure 7). The concentration of benzyl penicillin is reduced upon hydrolysis by IMP-1 causing a decrease in the absorption at 235 nm over the time, thereby allowing a way to monitor the reaction. Inhibitors of metallo-β-lactamase decrease the rate of hydrolysis of benzyl penicillin, thus, providing a way of measuring the activities of inhibitors against MBLs.
Benzyl penicillin solutions were prepared fresh at the time of assay as their activities will change and stop after 24 h even with keeping in the fridge.[1] In the first step, the inhibitory activities (IC50 values) of the inhibitors 2a–k were measured by a screening assay which evaluated the residual activity of the enzyme. […] Further kinetic analyses then allowed the determination of Kic values of these compounds based on the procedure reported by Arjomandi et al.[1] Inhibition assays for IMP-1 were performed in 96 well 400 µL UV multi-titre plates using a UV multi-plate spectrophotometer. The hydrolysis rate of benzyl penicillin (penicillin G sodium salt) was measured at λ = 235 nm.[49] The initial screening assay (IC50 values) was performed in duplicate, with benzyl penicillin as the substrate and HEPESX (50 mM HEPES, 0.1 M NaCl, […], pH 7.0) as the buffer at 25 °C. The final concentrations of enzyme and benzyl penicillin were 10 nM and 500 µM, respectively. Bovine serum albumin (a final concentration of 20 µg/mL) was added to the enzyme for stability. For each well, 196 µL substrate and 4 µL inhibitor were added followed by the addition of 200 µL of enzyme. The rate of the hydrolysis of substrate was recorded for 5 min. To measure Kic value, four solutions with different concentrations for each molecule were prepared and then were assayed based on the aforementioned procedure while the concentrations of substrate in wells were 200, 400, 600, 800 and 1000 µM. The raw kinetic data were analysed by non-linear regression using the Win Curve Fit program (Kevin Raner Software) and the Kic value was calculated for each molecule.[1] The Kic values of molecules 2a–k are in the range of 1.04–4.77 µM which was unexpected based on the computational modelling results. Although the introduced compounds are still potent enzyme-based inhibitors, they are nearly at least ten times less as potent as the lead inhibitor is. Due to the less inhibition activities of the synthesized molecules in compare to the reference compound, their cell-based assays have not carried out.

T1 sequence (P52699 22-246 limits assumed): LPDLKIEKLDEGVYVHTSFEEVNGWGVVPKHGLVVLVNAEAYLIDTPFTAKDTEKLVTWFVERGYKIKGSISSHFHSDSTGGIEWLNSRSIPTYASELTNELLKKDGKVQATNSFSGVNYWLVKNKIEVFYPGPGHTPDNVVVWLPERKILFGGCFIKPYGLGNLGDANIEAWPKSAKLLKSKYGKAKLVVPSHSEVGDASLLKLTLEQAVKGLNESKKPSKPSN

Compound	Ki
Cc1cccc(COc2ccc(C[C@H](NC(=O)CS)C(=O)O)cc2)c1 [Compound 2b, (S)-2-(2-Mercaptoacetamido)-3-(4-((3-methylbenzyl)oxy)phenyl)propanoic acid]	1.15 ± 0.49 µM
O=C(CS)N[C@@H](Cc1ccc(OCc2ccc(Br)cc2)cc1)C(=O)O [Compound 2k, (S)-3-(4-((4-Bromobenzyl)oxy)phenyl)-2-(2-mercaptoacetamido)propanoic acid]	3.3 ± 0.9 µM
O=C(CS)N[C@@H](Cc1ccc(OCc2ccccc2[N+](=O)[O-])cc1)C(=O)O [Compound 2g, (S)-2-(2-Mercaptoacetamido)-3-(4-((2-nitrobenzyl)oxy)phenyl)propanoic acid]	1.65 ± 0.34 µM
O=C(CS)N[C@@H](Cc1ccc(OCc2cccc(Br)c2)cc1)C(=O)O [Compound 2j, (S)-3-(4-((3-Bromobenzyl)oxy)phenyl)-2-(2-mercaptoacetamido)propanoic acid]	3.14 ± 0.71 µM
O=C(CS)N[C@@H](Cc1ccc(OCc2cccc(Cl)c2)cc1)C(=O)O [Compound 2e, (S)-3-(4-((3-chlorobenzyl)oxy)phenyl)-2–(2-mercaptoacetamido)propanoic acid]	4.77 ± 2.81 µM
O=C(CS)N[C@@H](Cc1ccc(OCc2ccc([N+](=O)[O-])cc2)cc1)C(=O)O [Compound 2i, (S)-2-(2-Mercaptoacetamido)-3-(4-((4-nitrobenzyl)oxy)phenyl)propanoic acid]	3.2 ± 0.62 µM
O=C(CS)N[C@@H](Cc1ccc(OCc2ccc(Cl)cc2)cc1)C(=O)O [Compound 2f, (S)-3-(4-((4-Chlorobenzyl)oxy)phenyl)-2-(2-mercaptoacetamido)propanoic acid]	3.2 ± 0.59 µM
Cc1ccccc1COc1ccc(C[C@H](NC(=O)CS)C(=O)O)cc1 [Compound 2a, (S)-2-(2-Mercaptoacetamido)-3-(4-((2-methylbenzyl)oxy)phenyl)propanoic acid]	1.04 ± 0.28 µM
Cc1ccc(COc2ccc(C[C@H](NC(=O)CS)C(=O)O)cc2)cc1 [Compound 2c, (S)-2-(2-Mercaptoacetamido)-3-(4-((4-methylbenzyl)oxy)phenyl)propanoic acid]	1.07 ± 0.21 µM
O=C(CS)N[C@@H](Cc1ccc(OCc2ccccc2Cl)cc1)C(=O)O [Compound 2d, (S)-3-(4-((2-Chlorobenzyl)oxy)phenyl)-2-(2-mercaptoacetamido)propanoic acid]	1.81 ± 0.9 µM
O=C(CS)N[C@@H](Cc1ccc(OCc2cccc([N+](=O)[O-])c2)cc1)C(=O)O [Compound 2h, (S)-2-(2-Mercaptoacetamido)-3-(4-((3-nitrobenzyl)oxy)phenyl)propanoic acid]	2.86 ± 1.23 µM

Target: T1, IMP-1
Experiment: not given
Conditions: read-out: Kic; against IMP-1; reference inhibitor; cited from earlier work

Compound	Ki
O=C(CS)N[C@@H](Cc1ccc(OCc2ccccc2)cc1)C(=O)O [Compound 1, L-benzyl tyrosine thiol carboxylic acid]	0.086 ± 0.024 µM
